Measurements taken from the supplement of paper PMC11208160.

Test: recombinant UMI read abundance after kanamycin selection (control-corrected) (log10(CPM+1)); higher = more efficient recombination; extreme values may be limits of the assay; sequences stand for … in AGTGCAGAGAAAATCGGCCAGTTTTCTCTGCCTGCAGTCCGCATGCCGTGGGACCCCTTGGGTTCTAACCTGTTGCCTAGATTTATGCAGCGGACTGCCTTTCTCCCAAAGTGATAAACCGG…AGGTTGGTTTCACT; site = the 11-nt donor
How it was run: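 For the IS621 bridge recombinase, a pooled Escherichia coli screen tested donor and donor-binding-loop pairs. Cells received the pair library together with a target plasmid encoding a fixed target and T7-inducible recombinase, then went onto IPTG (0.07 mM) plus kanamycin or unselected plates in duplicate. After PCR across the donor–target junction and sequencing, recombinant UMI counts were normalized to CPM, averaged, and scaled by control-derived factors. Each value is given as log10(CPM+1).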
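Further: IS621 bridge recombinase in Escherichia coli cells against a fixed T5 target plasmid.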

| Sequence | recombinant UMI read abundance (log10) |
| --- | --- |
| CCCTCGCCATGGACCGGTTTTCCCGGTAATCCGTATTTGCC (site CCCTCGCCTGG) | 0 |
| CCCTCGCCATGGACCGGTTTTCCCGGTAATCCGTATTTGCC (site CCCTGGCCTGG) | 0 |
| CCCTCGCCATGGACCGGTTTTCCCGGTAATCCGTATTTGCC (site CCCTTGCCTGG) | 0.011 |
| CCCTCGGCATGGACCGGTTTTCCCGGTAATCCGTATTTGCT (site CCCTCGGCTAG) | 0.0794 |
| CCCTGTTCATGGACCGGTTTTCCCGGTAATCCGTATTTGGG (site CCCTGTTCTCC) | 0.00741 |
| CCCTTCGCATGGACCGGTTTTCCCGGTAATCCGTATTTGGG (site CCCTTCACTCC) | 0.0167 |
| CCCTTCGCATGGACCGGTTTTCCCGGTAATCCGTATTTGGG (site CCCTTCCCTCC) | 0 |
| CCCTTCGCATGGACCGGTTTTCCCGGTAATCCGTATTTGGG (site CCCTTCGCTCC) | 0.0148 |
| CCCTTCGCATGGACCGGTTTTCCCGGTAATCCGTATTTGGG (site CCCTTCTCTCC) | 0.0112 |
| CCGAAAGCATGGACCGGTTTTCCCGGTAATCCGTATTTGAT (site CCAAAAGCTAT) | 0.501 |
| CCGAAAGCATGGACCGGTTTTCCCGGTAATCCGTATTTGAT (site CCCAAAGCTAT) | 0 |
| CCGAAAGCATGGACCGGTTTTCCCGGTAATCCGTATTTGAT (site CCGAAAGCTAT) | 0.975 |
| CCGAAAGCATGGACCGGTTTTCCCGGTAATCCGTATTTGAT (site CCTAAAGCTAT) | 0.0026 |
| CCGAAGACATGGACCGGTTTTCCCGGTAATCCGTATTTGGC (site CCGAAGACTGC) | 0 |
| CCGAATCCATGGACCGGTTTTCCCGGTAATCCGTATTTGTA (site CCGAATCCTTA) | 0 |
| CCGAATCCATGGACCGGTTTTCCCGGTAATCCGTATTTGTA (site CGGAATCCTAA) | 0.00532 |
| CCGAATGCATGGACCGGTTTTCCCGGTAATCCGTATTTGAT (site CCGAATGCTAT) | 0.919 |
| CCGAATTCATGGACCGGTTTTCCCGGTAATCCGTATTTGTT (site CCGAATTCTAA) | 0 |
| CCGAATTCATGGACCGGTTTTCCCGGTAATCCGTATTTGTT (site CGGAATCCTAA) | 0.00782 |

| Sequence | recombinant UMI read abundance (log10) |
| --- | --- |
| CCGAGCGCATGGACCGGTTTTCCCGGTAATCCGTATTTGAA (site CCGAGCGCTTT) | 0.998 |
| CCGAGCTCATGGACCGGTTTTCCCGGTAATCCGTATTTGTA (site CCGAGCTCTTA) | 0.496 |
| CCGAGGCCATGGACCGGTTTTCCCGGTAATCCGTATTTGGC (site CCGAGGCCTGC) | 0 |
| CCGATAGCATGGACCGGTTTTCCCGGTAATCCGTATTTGTG (site CCGATAGCTCA) | 0.0444 |
| CCGATAGCATGGACCGGTTTTCCCGGTAATCCGTATTTGTG (site CCGCTAGCTCA) | 0.0063 |
| CCGATAGCATGGACCGGTTTTCCCGGTAATCCGTATTTGTG (site CCGGTAGCTCA) | 0.00966 |
| CCGATAGCATGGACCGGTTTTCCCGGTAATCCGTATTTGTG (site CCGTTAGCTCA) | 0.0148 |
| CCGATATCATGGACCGGTTTTCCCGGTAATCCGTATTTGGC (site CCGATATCTGC) | 0.68 |
| CCGATCTCATGGACCGGTTTTCCCGGTAATCCGTATTTGAG (site CCGATCTCTCT) | 0.00289 |
| CCGCACACATGGACCGGTTTTCCCGGTAATCCGTATTTGGT (site CCGCACACTAC) | 0.509 |
| CCGCACACATGGACCGGTTTTCCCGGTAATCCGTATTTGTA (site CCACACACTTA) | 0.587 |
| CCGCACACATGGACCGGTTTTCCCGGTAATCCGTATTTGTA (site CCCCACACTTA) | 0.0105 |
| CCGCACACATGGACCGGTTTTCCCGGTAATCCGTATTTGTA (site CCGCACACTTA) | 0.895 |
| CCGCACACATGGACCGGTTTTCCCGGTAATCCGTATTTGTA (site CCTCACACTTA) | 0.00457 |
| CCGCATGCATGGACCGGTTTTCCCGGTAATCCGTATTTGCT (site CCGCATGCTAG) | 0.291 |
| CCGCATTCATGGACCGGTTTTCCCGGTAATCCGTATTTGCG (site CCGCATTCTCG) | 0.57 |
| CCGCCAGCATGGACCGGTTTTCCCGGTAATCCGTATTTGGG (site CCGCCAGCTCC) | 0 |
| CCGCCTCCATGGACCGGTTTTCCCGGTAATCCGTATTTGGC (site CCGCCTCCTGC) | 0 |
| CCGCGCACATGGACCGGTTTTCCCGGTAATCCGTATTTGTA (site CCGCGCACTTA) | 0.0144 |
